These results are taken from patent US8475804B2 (priority 2009, dated 2013).

Where a name gives a salt, the structure may show the parent alone. Read-outs that look alike come from different tables or passages of the source. Non-standard residues stand in square brackets, D forms with d. Residues, ends and D or L forms follow the SMILES beside them. *: point of attachment. Nva = CCC[C@H](N)C(=O)O; Cbz = O=C(OCc1ccccc1)* Where only a bound is given, the exact number is not on record here.

The subject of this assay is Ebola virus. Kind of assay: microbe, parasite or virus in culture. The assay is classed as cell-based, Ebolavirus (EBOV). The note with it: for Emax: read-out: Max Effect.

What is called IC50 is the concentration needed to halve the response being measured. Consider `CN1CCCN(C(c2ccccc2)c2ccc(Cl)cc2)CC1` (centres unmarked) [Homochlorcyclizine dihydrochloride], for which, for the setting “Zaire ebolavirus, Vero”, half-maximal inhibition (IC50) required 8.7 µM and the Emax amounted to 50.8%.

As to `CCCCCC(=O)O[C@]1(C(C)=O)CC[C@H]2[C@@H]3CCC4=CC(=O)CC[C@]4(C)[C@H]3CC[C@@]21C` [Hydroxyprogesterone Caproate], for the setting “Zaire ebolavirus, Vero”, the IC50 is 3.7 µM and the Emax came out at 71.9%.

On to `O=C(Nc1cc(C(F)(F)F)cc(C(F)(F)F)c1)c1cc(Cl)ccc1O` [IMD-0354], for which, where the note is “Zaire ebolavirus, Vero”, 3.1 µM corresponded to half-maximal inhibition (IC50) and the Emax is 66.1%.

Take `NC(=O)C[C@H](N)C(=O)O` [L-Asparagine]: where the note is “Zaire ebolavirus, Vero”, the IC50 is 7.2 µM and the Emax turned out to be 77.1%.

Take `C/C1=C/C(=O)O[C@@H]2C[C@@H](CC[C@H](C)/C=C\CC1)O[C@@](O)([C@@H]1CSC(=O)N1)C2` [Latrunculin B]: the “Max Effect” value came out at 0.621. Also, under “read-out: IC50”, the half-inhibitory concentration (IC50) was found to be 0.4 µM.

On to `CC(=O)N[C@@H](CC(C)C)C(=O)N[C@@H](CC(C)C)C(=O)N[C@H](C=O)CCCNC(=N)N` [Leupeptin HCl], for which, under “Zaire ebolavirus, Vero”, half-maximal inhibition (IC50) was put at 3.2 µM and the Emax was found to be 86.5%.

As to `C=CC(C)(C)c1cc(/C=C/C(=O)c2ccc(O)cc2)c(OC)cc1O` [Licochalcone-A], the “Max Effect” value stood at 0.522. Besides, the IC50 (read-out: IC50) is 4.7 µM.

Take `CN(C)C(=O)C(CCN1CCC(O)(c2ccc(Cl)cc2)CC1)(c1ccccc1)c1ccccc1` [Loperamide Hydrochloride]: for the setting “Hydrochloride”, the “Max Effect” value amounted to 0.418.

On to `CN(C)C(=O)C(CCN1CCC(O)(c2ccc(Cl)cc2)CC1)(c1ccccc1)c1ccccc1` [Loperamide], for which the “Max Effect” value is recorded as 0.716.

As to `CCOC(=O)N1CCC(=C2c3ccc(Cl)cc3CCc3cccnc32)CC1` [Loratadine], where the note is “Zaire ebolavirus, Vero”, the Emax amounted to 37.1%.

Consider `CCC[C@@H](C=O)NC(=O)[C@H](CC(C)C)NC(=O)[C@H](CC(C)C)NC(=O)OCc1ccccc1` [MG115] (Cbz-Leu-Leu-[Nva]-aldehyde), for which the “Max Effect” value is recorded as 0.693. Where the note is “read-out: IC50”, the IC50 was 0.9 µM.

As for `CC(C)C[C@@H](C=O)NC(=O)[C@H](CC(C)C)NC(=O)[C@H](CC(C)C)NC(=O)OCc1ccccc1` [MG-132] (Cbz-Leu-Leu-Leu-aldehyde), for the setting “Zaire ebolavirus, Vero”, the IC50 is under 0.6 µM and the Emax amounted to 90%.

For the molecule `CO[C@@H]1[C@@H](OC)[C@H](C)[C@@](O)(CC(=O)O)O[C@H]1[C@H](C)[C@H]1O[C@@]2(CC[C@@](C)([C@H]3CC[C@@](C)([C@@H]4O[C@@H]([C@H]5O[C@](C)(O)[C@H](C)C[C@@H]5C)C[C@@H]4O[C@@H]4C[C@H](OC)[C@@H](OC)[C@H](C)O4)O3)O2)C[C@H](O)[C@H]1C` [Maduramicin NH4], the Emax (Zaire ebolavirus, Vero) was found to be 45.2%.

As for `O=S(=O)([O-])[O-].[Mg+2]` [Magnesium Sulfate], the “Max Effect” value is listed as 0.719. Further, where the note is “read-out: IC50”, the IC50 was 9.2 µM.

Consider `COC(=O)Nc1nc2ccc(C(=O)c3ccccc3)cc2[nH]1` [Mebendazole], for which, under “Zaire ebolavirus, Vero”, it took 0.7 µM to reach half-maximal inhibition (IC50) and the Emax worked out at 50%.

In the case of `CN1C[C@H](CNC(=O)OCc2ccccc2)C[C@@H]2c3cccc4c3c(cn4C)C[C@H]21` [Metergoline], for the setting “Zaire ebolavirus, Vero”, the IC50 turned out to be 6.1 µM and the Emax was determined as 57.7%.

As to `CN1CCC(CN2c3ccccc3Sc3ccccc32)C1` (centres unmarked) [Methdilazine Hydrochloride], under “Zaire ebolavirus, Vero”, half-maximal inhibition (IC50) required 7.1 µM and the Emax was 51.9%.

`COc1c(C)c2c(c(O)c1C/C=C(\C)CCC(=O)O)C(=O)OC2` [Mycophenolic Acid]: under “Zaire ebolavirus, Vero”, the IC50 was under 1 µM and the Emax was determined as 80%.

For the molecule `Nc1ccc(C(=O)N[C@@H](CCC(=O)O)C(=O)O)cc1` [N-(4-Aminobenzoyl)-L-glutamic acid], under “Zaire ebolavirus, Vero”, the IC50 amounted to 9.7 µM and the Emax turned out to be 85.5%.

Regarding `COc1ccc(OC)c2c(=S)c3ccccc3[nH]c12` [NSC 625987], the “Max Effect” value was found to be 0.418.

For the molecule `O=C(Nc1ccc([N+](=O)[O-])cc1Cl)c1cc(Cl)ccc1O` [Niclosamide], for the setting “Zaire ebolavirus, Vero”, the IC50 came to 2.6 µM and the Emax came to 84.2%.

Regarding `COC(=O)Nc1nc2ccc(C(=O)c3cccs3)cc2[nH]1` [Nocodazole], for the setting “Zaire ebolavirus, Vero”, half-maximal inhibition (IC50) was put at 0.5 µM and the Emax came out at 80%.

Take `CCCCCCCCOC(=O)c1cc(O)c(O)c(O)c1` [Octyl Gallate]: the Emax (Zaire ebolavirus, Vero) was 43.9%.

`C=C1[C@@H](O)[C@@H]2O[C@]3(CC[C@H](/C=C/[C@@H](C)[C@@H]4CC(C)=C[C@@]5(O[C@H](C[C@@](C)(O)C(=O)O)CC[C@H]5O)O4)O3)CC[C@H]2O[C@@H]1[C@@H](O)C[C@H](C)[C@H]1O[C@@]2(CCCCO2)CC[C@H]1C` [Okadaic Acid]: the Emax (Zaire ebolavirus, Vero) worked out at 48.8%.

As to `CC[C@H]1/C=C/C=C/C[C@@H](C)[C@H](O)[C@@](C)(O)C(=O)[C@@H](C)[C@H](O)[C@@H](C)C(=O)[C@@H](C)[C@H](O)[C@@H](C)/C=C/C(=O)O[C@@H]2[C@H](C)[C@H](CC1)O[C@]1(CC[C@H](C)[C@H](C[C@@H](C)O)O1)[C@H]2C` [Oligomycin], the Emax (Zaire ebolavirus, Vero) was found to be 42.6%.

As to `O=c1[nH]c2ccccc2n1CCCN1CCN(C(c2ccccc2)c2ccccc2)CC1` [Oxatomide], where the note is “Zaire ebolavirus, Vero”, half-maximal inhibition (IC50) was put at 2.1 µM and the Emax worked out at 62.2%.

Consider `CCCOc1ccc2nc(NC(=O)OC)[nH]c2c1` [Oxibendazole], for which, where the note is “Zaire ebolavirus, Vero”, the Emax was found to be 47.2%.

`CCCCCCCCCC(=O)NC(CN1CCOCC1)C(O)c1ccccc1.Cl` (centres unmarked) [PDMP Hydrochloride]: the “Max Effect” value is 0.390.

With `O=C(OC[C@H]1O[C@@H](OC(=O)c2cc(O)c(O)c(O)c2)[C@H](OC(=O)c2cc(O)c(O)c(O)c2)[C@@H](OC(=O)c2cc(O)c(O)c(O)c2)[C@@H]1OC(=O)c1cc(O)c(O)c(O)c1)c1cc(O)c(O)c(O)c1` [PGG (1,2,3,4,6-b-O-Pentagalloyl glucose), 1,2,3,4,6-b-O-Pentagalloyl glucose], the “Max Effect” value was determined as 0.487. The IC50 (read-out: IC50) came to 3.2 µM.

Take `O=C1Nc2ccc3ncsc3c2/C1=C/c1cnc[nH]1` [PKR inhibitor]: the “Max Effect” value was determined as 0.434.

For the molecule `CCCCCCCCCCCCCC(=O)O[C@@H]1[C@@H](C)[C@@]2(O)[C@@H](C=C(CO)C[C@]3(O)C(=O)C(C)=C[C@@H]23)[C@@H]2C(C)(C)[C@]12OC(C)=O` [PMA], the “Max Effect” value stood at 0.800. Under “read-out: IC50”, the concentration for half-maximal inhibition (IC50) was under 0.18 µM.

Regarding `N=C(N)c1ccc(OCCCCCOc2ccc(C(=N)N)cc2)cc1` [Pentamidine], where the note is “Zaire ebolavirus, Vero”, 10.5 µM corresponded to half-maximal inhibition (IC50) and the Emax was 42.2%.

Turning to `CCCN1C[C@H](CSC)C[C@@H]2c3cccc4[nH]cc(c34)C[C@H]21` [Pergolide Mesylate], the Emax (Zaire ebolavirus, Vero) stood at 38.3%.

On to `C1CCC(C(CC2CCCCN2)C2CCCCC2)CC1` (centres unmarked) [Perhexiline Maleate], for which, under “Zaire ebolavirus, Vero”, half-maximal inhibition (IC50) required 4.1 µM and the Emax was 89%.

Take `OCCN1CCN(CCCN2c3ccccc3Sc3ccc(Cl)cc32)CC1` [Perphenazine]: where the note is “Zaire ebolavirus, Vero”, half-maximal inhibition (IC50) was put at 5.8 µM and the Emax amounted to 79.3%.

As to `COc1cc([C@@H]2c3cc4c(cc3[C@H](O)[C@H]3COC(=O)[C@H]23)OCO4)cc(OC)c1OC` [Podofilox], where the note is “Zaire ebolavirus, Vero”, the IC50 is 1.8 µM and the Emax worked out at 80%.

`CCC(=O)O[C@](Cc1ccccc1)(c1ccccc1)[C@H](C)CN(C)C` [Propoxyphene Hydrochloride]: where the note is “Zaire ebolavirus, Vero”, the Emax was determined as 42.2%.

On to `COc1ccc(C[C@H](N)C(=O)N[C@H]2[C@@H](O)[C@H](n3cnc4c(N(C)C)ncnc43)O[C@@H]2CO)cc1` [Puromycin dihydrochloride], for which, for the setting “Zaire ebolavirus, Vero”, the half-inhibitory concentration (IC50) was 6.6 µM and the Emax was 83.5%.

With `[O-][n+]1ccccc1[S-].[O-][n+]1ccccc1[S-].[Zn+2]` [Pyrithione Zinc], the “Max Effect” value came out at 0.767.

Turning to `Cc1cc(/C=C/c2ccc3cc(N(C)C)ccc3[n+]2C)c(C)n1-c1ccccc1` [Pyrvinium Pamoate], under “Zaire ebolavirus, Vero”, half-maximal inhibition (IC50) was put at 3.4 µM and the Emax worked out at 80%.

Consider `C#C[C@]1(O)CC[C@H]2[C@@H]3CCc4cc(OC5CCCC5)ccc4[C@H]3CC[C@@]21C` [Quinestrol], for which, for the setting “Zaire ebolavirus, Vero”, the midpoint of inhibition, the IC50, lay at 7.2 µM and the Emax came out at 54.9%.

Regarding `O=C(c1ccc(OCCN2CCCCC2)cc1)c1c(-c2ccc(O)cc2)sc2cc(O)ccc12` [Raloxifene Hydrochloride], for the setting “Zaire ebolavirus, Vero”, the IC50 was found to be 2.4 µM and the Emax amounted to 69.1%.

Turning to `COC(=O)[C@H]1[C@H]2C[C@@H]3c4[nH]c5cc(OC)ccc5c4CCN3C[C@H]2C[C@@H](OC(=O)/C=C/c2cc(OC)c(OC)c(OC)c2)[C@@H]1OC` [Rescinnamine], the Emax (Zaire ebolavirus, Vero) turned out to be 51.2%.

`CC(C)c1nc(CN(C)C(=O)N[C@H](C(=O)N[C@@H](Cc2ccccc2)C[C@H](O)[C@H](Cc2ccccc2)NC(=O)OCc2cncs2)C(C)C)cs1` [Ritonavir]: the Emax (Zaire ebolavirus, Vero) was 48.5%.

With `C=C(C)[C@H]1Cc2c(ccc3c2O[C@@H]2COc4cc(OC)c(OC)cc4[C@@H]2C3=O)O1` [Rotenone], under “Zaire ebolavirus, Vero”, the IC50 was under 2 µM and the Emax is 70%.

As for `Oc1c2ccccc2c2c3c(cccc13)N=N2` [SP 600125], the Emax (Zaire ebolavirus, Vero) stood at 36.5%.

With `NC(=O)c1cn([C@@H]2O[C@H](CO)[C@@H](O)[C@H]2O)c2ncnc(N)c12` [Sangivamycin Hydrate], where the note is “Zaire ebolavirus, Vero”, the IC50 was under 0.2 µM and the Emax worked out at 90%.

Regarding `O=C([O-])O.[Na+]` [Sodium Bicarbonate], the “Max Effect” value was 0.389.

`CNC(=O)c1cc(Oc2ccc(NC(=O)Nc3ccc(Cl)c(C(F)(F)F)c3)cc2)ccn1` [Sorafenib Tosylate]: where the note is “Zaire ebolavirus, Vero”, inhibition was half-maximal at 3.9 µM (IC50) and the Emax was determined as 81.9%.

`CCN(CC)CCNC(=O)c1c(C)[nH]c(/C=C2\C(=O)Nc3ccc(F)cc32)c1C` [Sunitinib Malate]: for the setting “Zaire ebolavirus, Vero”, the IC50 was 4.4 µM and the Emax was 78.8%.

`CC/C(=C(\c1ccccc1)c1ccc(OCCN(C)C)cc1)c1ccccc1` [Tamoxifen]: the Emax (Zaire ebolavirus, Vero) was 90%.

`O=C(OC[C@H]1O[C@@H](OC(=O)c2cc(O)c(O)c(OC(=O)c3cc(O)c(O)c(O)c3)c2)[C@H](OC(=O)c2cc(O)c(O)c(OC(=O)c3cc(O)c(O)c(O)c3)c2)[C@@H](OC(=O)c2cc(O)c(O)c(OC(=O)c3cc(O)c(O)c(O)c3)c2)[C@@H]1OC(=O)c1cc(O)c(O)c(OC(=O)c2cc(O)c(O)c(O)c2)c1)c1cc(O)c(O)c(OC(=O)c2cc(O)c(O)c(O)c2)c1` [Tannic Acid]: the Emax (Zaire ebolavirus, Vero) amounted to 54.3%.

For the molecule `CC(C)(C)c1ccc(C(O)CCCN2CCC(C(O)(c3ccccc3)c3ccccc3)CC2)cc1` (centres unmarked) [Terfenadine], under “Zaire ebolavirus, Vero”, the midpoint of inhibition, the IC50, lay at 6.1 µM and the Emax came out at 91.4%.
